Like-named read-outs stand apart in the source and are kept apart here. Where only a bound is given, the exact number is not on record here.

This note sets out measurements from patent publication US10626148B2, “Glycopeptides conjugates and uses thereof” (priority 2015, dated 2020).

In assay [1] the test system is meropenem-resistant NDM-1 K. pneumoniae R3934. Description: Sepsis infection model in mice. In kind it is in vivo. Conditions: CD-1 mice, i.p., 10 mg/kg alone, 1 h and 24 h post-infection. How it is done:
Sepsis infection model: About six-week-old, female CD-1 mice (weight, ˜19-24 g) were used for the experiments. Mice were infected intraperitoneally (i.p.) with a dose of ˜10^6 CFU/mouse of meropenem-resistant NDM-1 K. pneumoniae R3934. Then, mice were treated twice at 1 h and 24 h post-infection with a specified i.p. dose of either saline, meropenem (10 mg/kg), compound 4 (10 mg/kg), or a combination of compound 4 (10 mg/kg) and meropenem (10 mg/kg). Here, colistin (5 mg/kg) was used as a positive control. Mice were euthanized after 48 h post-infection and then liver, spleen, kidney and lungs were collected to find out the bacterial density in these organs. Organs were placed into 10 ml sterile saline on ice, and then homogenized. The dilutions of the homogenate were plated onto agar plates, which were incubated for 24 h at 37° C. The bacterial titer was expressed as log10 CFU/g of organ weight.

For assay [2], the system named is NDM-1 expressing Escherichia coli R3336. As to the kind of experiment: microbe, parasite or virus in culture. Type of assay: cell-based. The settings on record: for MIC: Escherichia coli. The method, then: (§1) Test compounds were assayed in a micro-dilution broth format. Stock solutions were made by serially diluting the compounds using autoclaved millipore water or broth media. The antibacterial activity of the compounds was determined against gram positive bactreia like methicillin-resistant S. aureus (MRSA), vancomycin-intermediate-resistant S. aureus (VISA), vancomycin-sensitive E. faecium (VSE), vancomycin-resistant E. faecalis and vancomycin-resistant E. faecium (VRE). Antibacterial activity of dipicolyl-vancomycin conjugate conjugate (4) in combination with meropemem was determined against gram-negative bacteria such as K. pneumoniae ATCC BAA2146, clinical isolates K. pneumoniae R3949, K. pneumoniae R3934, E. coli R3336 and A. baumanii R676. Bacteria, to be tested, were grown for about 10 h in the suitable media, MRSA, VISA and gram negative bacteria were grown in Yeast-dextrose broth (about 1 g of beef extract, about 2 g of yeast extract, about 5 g of peptone and about 5 g of NaCl in about 1000 mL of sterile distilled water (pH-7)). For solid media, about 5% agar was used along with above mentioned composition. VSE and VRE were cultured in Brain Heart Infusion broth (Himedia). The bacterial samples were freeze dried and stored at −80° C. About 5 μL of these stocks were added to about 3 mL of the nutrient broth or Brain Heart Infusion broth and the culture was grown for about 6 h at about 37° C. prior to the experiments. This 6 h grown culture gives about 10^9 cfu/mL and this was determined by spread plating method. The 6 h grown culture was diluted to give effective cell concentration of about 10^5 cfu/mL which was then used for determining MIC. Compounds were serially diluted, in sterile water (2-fold dilution is employed) in a way that the working concentration was about 10 μM for MRSA, and VSE while for VRE, VISA and gram negative bacteria; it was about 100 μM. About 50 μL of these serial dilutions were added to the wells of 96 well plate followed by the addition of about 150 μL of bacterial solution. The plates were then incubated at about 37° C., 150 rpm in the incubator and O.D at 620 nm was recorded at an interval of about 24 h using TECAN (Infinite series, M200 pro) Plate Reader. Each concentration had triplicate values and the whole experiment was done at least twice and the MIC value was determined by taking the average of triplicate O.D. values for each concentration and plotting it against concentration. The data was then subjected to sigmoidal fitting.
(§2) Then, the antibacterial activities of Dipicolyl-vancomycin conjugate (4) is checked in combination with meropenem against New-Delhi β-lactamase producing gram negative bacteria such as K. pneumoniae BAA2146, clinical isolates K. pneumoniae R3949, K. pneumoniae R3934, E. coli R3336 and A. baumanii R676. […] Further we have also evaluated the antibacterial activity of dipicolyl-vancomycin conjugate (4) in presence of zinc sulphate, wherein it forms dipicolyl-vancomycin-zinc complex (5).

In assay [3] the test system is NDM-1 expressing Klebsiella pneumoniae R3934. As to the kind of experiment: microbe, parasite or virus in culture. The settings on record: for MIC: Klebsiella pneumoniae. In kind it is cell-based. The method, then:
as §1, §2

The test system of assay [4] is NDM-1 expressing Klebsiella pneumoniae ATCC BAA2146. Description: microbe, parasite or virus in culture. Conditions: for MIC: Klebsiella pneumoniae. In kind it is cell-based. The method, then: as §1, §2
The test system of assay [5] is NDM-1 expressing Klebsiella pneumoniae R3949. Description: microbe, parasite or virus in culture. In kind it is cell-based. Conditions: for MIC: Klebsiella pneumoniae. The method, then: as §1, §2
Assay [6] concerns Vancomycin intermediate resistant S. aureus. Description: MIC, micro-dilution broth, VISA. In kind it is cell-based. The method, then:
as §1

The subject of assay [7] is Vancomycin-resistant E. faecalis (VanA, ATCC 51575). Description: MIC, micro-dilution broth, VREs. In kind it is cell-based. The method, then:
as §1

The subject of assay [8] is Methicillin-resistant S. aureus (ATCC 33591). Description: MIC, micro-dilution broth, MRSA. Type of assay: cell-based. How it is done: as §1
Another assay relates to MRSA. Description: Resistance development study, serial passages. In kind it is cell-based, S. aureus. The settings on record: passaged at MIC/2. How it is done: MIC values of the compound 4 and vancomycin were determined against MRSA as described above. For the next day MIC experiment, the bacterial dilution was made by using the bacteria from sub-MIC concentration of the compounds (at MIC/2). Then, the concentration of this bacteria was adjusted to ˜10^5 CFU/mL based on OD600 and subjected to next MIC assay. After a 24 h incubation period, again bacterial dilution was prepared by using the bacterial suspension from sub-MIC concentration of the compound (at MIC/2) and assayed for another MIC experiment. The process was repeated for 25 passages, and the fold increase in MIC was determined. […] Thus bacteria were unable in acquiring resistance to this compound and this emphasizes the longevity of such compounds in clinics.

The next assay has as its target T1, NDM-1 enzyme (Klebsiella pneumoniae, UniProt C7C422).
T1 construct: made in house; host or cells: E. coli BL21 (DE3)
Description: NDM-1 enzyme inhibition, nitrocefin substrate. In kind it is biochemical. Conditions: nitrocefin as substrate. The method, then: The NDM-1 was produced by E. coli BL21 (DE3) carrying pET30a-NDM-1 in LB medium. Initially, the purified NDM-1 enzyme (5 nM, HEPES buffer, pH-7.4) was supplemented with 20 μM ZnSO4 for 30 min. Next, the enzyme was pre-incubated with the inhibitor (compound 4) for 20 min prior to the initiation of the assay by the addition of the substrate (Nitrocefin, 30 μM). Assays were read in 96-well microplate format at 490 nm (absorbance) using TECAN plate reader (Infinite Pro.) at 37° C. IC50s were deduced from a plot of percent loss of activity versus inhibitor concentration.

Assay [9] has as its system Vancomycin-sensitive E. faecium (ATCC 19634). Description: MIC, micro-dilution broth, VSEm. In kind it is cell-based. How it is done:
as §1
On the technique in general: Dilution methods test growth across graded concentrations, often in twofold steps.

Assay [10] has as its system Vancomycin-resistant E. faecium (VanA, ATCC 51559). As to the kind of experiment: MIC, micro-dilution broth, VREm. In kind it is cell-based. How it is done:
as §1

The next assay has as its system VREs ATCC 51575. Type of assay: in vivo, E. faecalis. Conditions: CD-1 mice, 12 mg/kg i.p. once daily, three doses. How it is done:
Female CD-1 mice 6 to 8 weeks of age and weighing 20 to 25 g were used in this study. On day −7, all mice were injected intravenously (i.v.) with 0.2 mL of 0.2% λ-carrageenan to increase their susceptibility to bacterial renal infection. λ-Carrageenan increases mice susceptibility to renal infection following i.v. injection, possibly by forming a lattice structure in renal tissue and forming a support structure for bacterial attachment and growth. Bacterial strains that fail to cause renal infection in normal mice produce significant renal infections in λ-carrageenan-treated mice. On day 0, all mice were injected i.v. with 0.2 mL of the bacterial culture (VREs ATCC 51575, 10^8 CFU/mouse) through the tail vein. Four hours after the bacterial inoculation, mice were treated intraperitoneally (i.p.) with vancomycin, compound 4 and linezolid at 12 mg/kg of body weight or 0.2 mL of saline (0.9% NaCl) control (n=5). All the test compounds or saline were administered once daily for an additional two consecutive days for a total of three doses. All mice were sacrificed on day 3. Both kidneys from each mouse were removed aseptically and homogenized in 10 mL of saline. The dilutions of the homogenate were plated onto sheep blood agar plates, which were incubated overnight at about 37° C. The bacterial titer was expressed as log10 CFU/g of kidney weight.

In assay [11] the test system is Staphylococci (MRSA and VISA) and Enterococci (VREm and VREs). Description: Antibacterial activity, gram positive panel. Type of assay: cell-based. The settings on record: VSEm. The method, then: (§3) Test compounds were assayed in a micro-dilution broth format. Stock solutions were made by serially diluting the compounds using autoclaved millipore water or broth media. The antibacterial activity of the compounds was determined against gram positive bactreia like methicillin-resistant S. aureus (MRSA), vancomycin-intermediate-resistant S. aureus (VISA), vancomycin-sensitive E. faecium (VSE), vancomycin-resistant E. faecalis and vancomycin-resistant E. faecium (VRE). Antibacterial activity of dipicolyl-vancomycin conjugate conjugate (4) in combination with meropemem was determined against gram-negative bacteria such as K. pneumoniae ATCC BAA2146, clinical isolates K. pneumoniae R3949, K. pneumoniae R3934, E. coli R3336 and A. baumanii R676. […] This 6 h grown culture gives about 10^9 cfu/mL and this was determined by spread plating method. […] The plates were then incubated at about 37° C., 150 rpm in the incubator and O.D at 620 nm was recorded at an interval of about 24 h using TECAN (Infinite series, M200 pro) Plate Reader. Each concentration had triplicate values and the whole experiment was done at least twice and the MIC value was determined by taking the average of triplicate O.D. values for each concentration and plotting it against concentration. […]

Assay [12] concerns meropenem-resistant NDM-1 bacteria. Description: Combination with meropenem against NDM-1 gram negative bacteria. Conditions: in combination with meropenem. Type of assay: cell-based. How it is done: as §3, with “R676. Bacteria, to be tested, were grown for about 10 h in the suitable media, MRSA, VISA and gram negative bacteria were grown in Yeast-dextrose broth (about 1 g of beef extract, about 2 g of yeast extract, about 5 g of peptone and about 5 g of NaCl in about 1000 mL of sterile distilled water (pH-7)).” for “R676.”
as §2

The mark [13] stands for this setting: read-out: MIC of Meropenem in absence of compound 4.
Setting [14] is: read-out: MIC of Meropenem in absence of compound 5.

T1 sequence (C7C422 29-270, looked up, species assumed): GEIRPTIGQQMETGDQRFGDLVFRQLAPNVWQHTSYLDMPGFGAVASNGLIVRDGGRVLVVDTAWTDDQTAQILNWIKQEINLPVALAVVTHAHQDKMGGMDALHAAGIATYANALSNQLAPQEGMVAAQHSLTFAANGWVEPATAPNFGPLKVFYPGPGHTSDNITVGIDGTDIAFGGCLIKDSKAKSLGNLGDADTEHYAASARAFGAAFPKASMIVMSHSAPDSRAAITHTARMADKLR

As for `C[C@@H](O)[C@H]1C(=O)N2C(C(=O)O)=C(S[C@@H]3CN[C@H](C(=O)N(C)C)C3)[C@H](C)[C@H]12` [Meropenem, meropenem, reference compound], in [1], the “in-vivo antibacterial activity, bacterial titer in organs” value was “did not show any activity”. For the same molecule, the MIC is above 100 µg/mL in [2] (setting [13]); above 100 µg/mL in assay [2] (setting [14]); above 100 µg/mL in assay [3] (setting [13]); above 100 µg/mL in [3] (setting [14]); above 100 µg/mL in [4] (ATCCBAA2146, read-out: MIC of Meropenem in absence of compound 4); above 100 µg/mL in assay [4] (ATCCBAA2146, read-out: MIC of Meropenem in absence of compound 5). The MIC in assay [5] (setting [13]) and in assay [5] (setting [14]) was above 100 µg/mL each time.

With `CN[C@H](CC(C)C)C(=O)N[C@H]1C(=O)N[C@@H](CC(N)=O)C(=O)N[C@H]2C(=O)N[C@H]3C(=O)N[C@H](C(=O)N[C@H](C(=O)O)c4cc(O)cc(O)c4-c4cc3ccc4O)[C@H](O)c3ccc(c(Cl)c3)Oc3cc2cc(c3O[C@H]2OC(CO)[C@H](O)C(O)C2O[C@H]2C[C@@](C)(N)[C@@H](O)C(C)O2)Oc2ccc(cc2Cl)[C@H]1O` (stereo partly shown) [Vancomycin, reference compound], the MIC was determined as 13 µM in assay [6] (Staphylococcus aureus); 250 µM in assay [7] (Enterococcus faecalis, ATCC51575); 0.63 µM in assay [8] (Staphylococcus aureus); 0.6 µM in assay [9] (Enterococcus faecium, ATCC19634); 750 µM in [10] (Enterococcus faecium, ATCC51559). Further, the “fold increase in MIC after 25 serial passages” value with MRSA was around 16 fold. For the same molecule, the “passages after which the MIC value started increasing” value with MRSA was 7 passages. Also, on NDM-1 enzyme, the “effect on the activity of NDM-1” value is recorded as “no effect”.

`CC(=O)NC[C@H]1CN(c2ccc(N3CCOCC3)c(F)c2)C(=O)O1` [Linezolid, linezolid, reference compound]: the “reduction of bacterial titer from infected kidneys in comparison to vancomycin” value in the assay with VREs ATCC 51575 is “reduced bacterial titer from the infected kidneys more effectively”. Further, the “CFU reduction compared to vehicle treated control (saline)” value in the assay with VREs ATCC 51575 (kidneys) is on record as around 4 log10 CFU.

As for `NCCCCCCN(Cc1ccccn1)Cc1ccccn1` [Compound 3, dipicolyl-1,6-hexadiamine], the MIC in assay [6], in assay [7] (VREs), in [8] (MRSA), in [9] (VSEm) and in assay [10] (VREm) was above 100 µM in each case. Further, the “antibacterial activity against any of the bacteria tested” value in assay [11] is given as “did not show any activity”. Further, the “resensitization of meropenem-resistant NDM-1 bacteria to meropenem (synergistic activity)” value in [12] is “did not show any appreciable synergistic activity”.

Regarding “Dipicolyl-Vancomycin-Zinc Complex [Compound 5]”, the MIC in assay [6] came to 0.3 µM; in assay [7] (VREs), 1.5 µM; in assay [8] (MRSA), 0.3 µM; in assay [9] (VSEm) it was 0.31 µM; in assay [10] (VREm) it was 0.6 µM. Besides, the “MIC of Meropenem in presence of compound 5 at 12 μM” value in assay [2] (Escherichia coli R3336), in assay [3] (Klebsiella pneumoniae R3934), in assay [4] (Klebsiella pneumoniae ATCC BAA2146) and in [5] (Klebsiella pneumoniae R3949) was above 100 µg/mL in each case. Also, the “fold more active than vancomycin” value in [10] (VREm (VRE), ratio of MIC values) is “about 1250 fold”. Moreover, the “resensitization of meropenem-resistant NDM-1 bacteria to meropenem (synergistic activity)” value in assay [12] is given as “did not restore the activity of meropenem”.
